From patent US6423727B1, “Certain thiol inhibitors of endothelin-converting enzyme” (Novartis AG, priority 1998, dated 2002)

| melting point [°C] | SMILES |
| --- | --- |
| 235 to 236 | CC(C)[C@H](S)C(=O)NC1(C(=O)N[C@@H](Cc2ccc(-c3ccc(C(F)(F)F)cc3)cc2)C(=O)O)CCCC1 (stereo in doubt) [2-{[1-(2-Mercapto-3-methylbutanoylamino)-cyclopentanecarbonyl]-amino}-3-(4′-trifluoromethyl-biphenyl-4-yl)-propionic acid] |
| 172 to 175 | O=C(NC1(C(=O)NC(Cc2ccc(C3CCCCC3)cc2)C(=O)O)CCCC1)C(S)Cc1ccccc1 (stereo not shown) [3-(4-Cyclohexyl-phenyl)-2-{[1-(2-mercapto-3-phenyl-propionylamino)-cyclopentanecarbonyl]-amino}-propionic acid] |
| 155 to 158 | CC(C)[C@H](S)C(=O)NC1(C(=O)NC(Cc2ccc(-c3csc(CO)c3)cc2)C(=O)O)CCCC1 (stereo in doubt) [3-[4-(5-Hydroxymethyl-thiophen-3-yl)-phenyl]-2-{[1-(2-mercapto-3-methyl-butanoylamino)-cyclopentanecarbonyl]-amino}-propionic acid] |
| 173 to 175 | COc1ccccc1-c1ccc(C[C@H](NC(=O)C2(NC(=O)[C@@H](S)C(C)C)CCCC2)C(=O)O)cc1OC (stereo in doubt) [3-(2,2′-Dimethoxy-biphenyl-4-yl)-2-{[1-(2-mercapto-3-methyl-butanoylamino)-cyclopentanecarbonyl]-amino}-propionic acid] |
| 179 to 181 | CC(C)[C@H](S)C(=O)NC1(C(=O)N[C@@H](Cc2ccc(-c3cccs3)cc2)C(=O)O)CCCC1 (stereo in doubt) [2-{[1-(2-Mercapto-3-methyl-butanoylamino)-cyclopentanecarbonyl]-amino}-3-[4-(thiophen-2-yl)-phenyl]-propionic acid] |
| 190 to 192 | O=C(NC1(C(=O)N[C@@H](Cc2ccc(-c3ccsc3)cc2)C(=O)O)CCCC1)C(S)Cc1ccccc1 (stereo in doubt) [2-{[1-(2-Mercapto-3-phenyl-propionylamino)-cyclopentanecarbonyl]-amino}-3-[4-(thiophen-3-yl)-phenyl]-propionic acid] |
| 187 to 189 | O=C(O)[C@H](Cc1ccc(-c2ccccc2)cc1)NC(=O)C1(NC(=O)[C@@H](S)Cc2ccc(-c3ccccc3)cc2)CCCC1 |
| 115 to 117 | Cc1c(CC(NC(=O)C2(NC(=O)C(S)CC(C)C)CCCC2)C(=O)O)oc2c(F)c(F)c(F)c(F)c12 (stereo not shown) [Example 13(a), 2-{[1-(2-Mercapto-4-methyl-pentanoylamino)-cyclopentanecarbonyl]-amino}-3-(4,5,6,7-tetrafluoro-3-methyl-benzofuran-2-yl)-propionic acid] |
| 75 to 78 | CC(C)[C@H](S)C(=O)NC1(C(=O)N[C@@H](Cc2cccc(-c3ccccc3)c2)C(=O)O)CCCC1 (stereo in doubt) [3-Biphenyl-3-yl-2-{[1-(2-mercapto-3-methylbutanoylamino)-cyclopentanecarbonyl]-amino}-propionic acid] |
| 236 to 238 | CC(C)[C@H](S)C(=O)NC1(C(=O)NC(Cc2ccc(-c3ccncc3)cc2)C(=O)O)CCCC1 (stereo partly shown) [2-{[1-(2-Mercapto-3-methyl-butanoylamino)-cyclopentanecarbonyl]-amino}-3-(4-yl-phenyl)-propionic acid] |
| 99 to 101 | CC[C@H](C)C(S)C(=O)NC1(C(=O)N[C@@H](Cc2ccc(-c3ccsc3)cc2)C(=O)O)CCCC1 (stereo in doubt) [2-{[1-(2-Mercapto-3-methyl-pentanoylamino)-cyclopentanecarbonyl]-amino}-3-[4-(thiophen-3-yl)-phenyl]-propionic acid] |
| 209 to 210 | CC(C)[C@H](S)C(=O)NC1(C(=O)N[C@@H](CC2CCC(C3CCCCC3)CC2)C(=O)O)CCCC1 (stereo in doubt) [3-Bicyclohexyl-4-yl-2-{[1-(2-mercapto-3-methyl-butanoylamino)-cyclopentanecarbonyl]-amino}-propionic acid] |
| 187 to 189 | CSc1ccc(-c2ccc(C[C@H](NC(=O)C3(NC(=O)[C@@H](S)CC(C)C)CCCC3)C(=O)O)cc2)cc1 (stereo in doubt) [2-{[1-(2-mercapto4-methyl-pentanoylamino)-cyclopentanecarbonyl]-amino}-3-(4′-methylthio-biphenyl-4-yl)-propionic acid] |
| 161 to 163 | CC(C)[C@H](S)C(=O)NC1(C(=O)N[C@@H](Cc2ccc(-c3ccccc3)cc2)C(=O)O)CCOCC1 (stereo in doubt) [3-Biphenyl-4-yl-2-{[4-(2-mercapto-3-methyl-butanoylamino)-tetrahydro-pyran-4-carbonyl]-amino}-propionic acid] |
| 222 to 225 | O=C(O)[C@H](Cc1ccc(-c2ccc(C(F)(F)F)cc2)cc1)NC(=O)C1(NC(=O)[C@@H](S)Cc2ccccc2)CCCC1 (stereo in doubt) [2-{[1-(2-Mercapto-3-phenyl-propionylamino)-cyclopentanecarbonyl]-amino}-3-(4′-trifluoromethyl-biphenyl-4-yl)-propionic acid] |
| 95 to 108 | CCC[C@H](S)C(=O)NC1(C(=O)N[C@@H](Cc2ccc(-c3ccno3)cc2)C(=O)O)CCCC1 (stereo in doubt) [3-(4-Isoxazole-5-yl-phenyl)-2-{[1-(2-mercapto-pentanoylamino)-cyclopentanecarbonyl]-amino}-propionic acid] |
| 190 to 192 | CC(C)[C@H](S)C(=O)NC1(C(=O)N[C@@H](Cc2ccc3c(c2)CCCC3)C(=O)O)CCCC1 (stereo in doubt) [2-{[1-(2-Mercapto-3-methyl-butanoylamino)-cyclopentanecarbonyl]-amino}-3-(5,6,7,8-tetrahydro-naphthalen-2-yl)-propionic acid] |
| 102 to 105 | CCCC(S)C(=O)NC1(C(=O)NC(Cc2c[nH]c3ccccc23)C(=O)O)CCCC1 (stereo not shown) [Example 13(c), 3-(1H-Indol-3-yl)-2-{[1-(2-mercapto-pentanoylamino)-cyclopentanecarbonyl]-amino}-propionic acid] |
| 125 to 128 | CC(C)C[C@H](S)C(=O)NC1(C(=O)N[C@@H](Cc2ccc(-c3cccc(F)c3)cc2)C(=O)O)CCCC1 (stereo in doubt) [3-(3′-Fluoro-biphenyl-4-yl)-2-{[1-(2-mercapto-4-methyl-pentanoylamino)-cyclopentanecarbonyl]-amino}-propionic acid] |
| 116 to 118 | CC(C)CC(S)C(=O)NC1(C(=O)NC(Cc2c[nH]c3ccccc23)C(=O)O)CCCC1 (stereo not shown) [Example 13(b), 3-(1H-Indol-3-yl)-2-{[1-(2-mercapto-4-methyl-pentanoylamino)-cyclopentanecarbonyl]-amino}-propionic acid] |
| 171 to 173 | CC(C)[C@H](S)C(=O)NC1(C(=O)N[C@@H](Cc2ccc(-c3ccccc3F)cc2)C(=O)O)CCCC1 (stereo in doubt) [3-(2′-Fluoro-biphenyl-4-yl)-2-{[1-(2-mercapto-3-methyl-butanoylamino)-cyclopentanecarbonyl]-amino}-propionic acid] |
| 192 to 195 | CC(C)C[C@H](S)C(=O)NC1(C(=O)NC(Cc2ccc(-c3cncnc3)cc2)C(=O)O)CCCC1 (stereo in doubt) [2-{[1-(2-Mercapto-4-methyl-pentanoylamino)-cyclopentanecarbonyl]-amino}-3-(4-pyrimidin-5-yl-phenyl)-propionic acid] |
